Test results as given in paper PMC9511493, “2-(Fluoromethoxy)-4′-(S-methanesulfonimidoyl)-1,1′-biphenyl (UCM-1306), an Orally Bioavailable Positive Allosteric Modulator of the Human Dopamine D1 Receptor for Parkinson’s Disease” (Journal of Medicinal Chemistry, 2022).

Columns and labels:
CYP1A2 = molecular target: T1, CYP1A2 (Homo sapiens, UniProt P05177); assay: cytochrome inhibition, fluorescence assay, CYP1A2; type: in vitro ADME
T1 construct: host or cells: insect cell microsomes
T1 sequence (P05177 1-516): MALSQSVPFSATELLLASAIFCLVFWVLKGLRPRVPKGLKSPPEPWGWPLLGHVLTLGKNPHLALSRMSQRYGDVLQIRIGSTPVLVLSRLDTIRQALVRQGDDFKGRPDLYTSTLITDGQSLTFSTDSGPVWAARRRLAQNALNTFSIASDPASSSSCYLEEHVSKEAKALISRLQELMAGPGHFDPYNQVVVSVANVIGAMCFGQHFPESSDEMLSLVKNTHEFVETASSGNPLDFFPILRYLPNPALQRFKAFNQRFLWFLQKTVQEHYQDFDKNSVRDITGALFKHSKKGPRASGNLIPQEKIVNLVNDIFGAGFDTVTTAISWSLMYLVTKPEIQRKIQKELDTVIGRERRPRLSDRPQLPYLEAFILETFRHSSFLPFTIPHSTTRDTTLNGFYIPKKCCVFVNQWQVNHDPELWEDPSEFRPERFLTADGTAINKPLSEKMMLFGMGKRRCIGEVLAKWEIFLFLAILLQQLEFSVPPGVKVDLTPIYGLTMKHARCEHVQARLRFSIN
Procedure: Cytochrome inhibition. The objective of this study was to screen the potential of test […]
performed using recombinant isoforms CYP1A2, CYP2C9, CYP2C19, CYP2D6, and CYP3A4, and probe substrates with fluorescent detection.
Assays were conducted in a 200 µL volume in 96-well microtiter plates (COSTAR 3915).
Addition of cofactor-buffer mixture (KH2PO4 buffer, 1.3 mM NADP, 3.3 mM MgCl2, 3.3 mM glucose -6- phosphate, and 0.4 U/mL glucose -6- phosphate dehydrogenase), supersomes control, standard inhibitors (furafyline, tranylzypromine, ketoconazole, sulfaphenazole, and quinidine from Sigma Aldrich) and test compound to the plate was carried out by a liquid handling station (Zephyr Caliper). The plate was then pre-incubated at 37 °C for 5 min, and the reaction was initiated by the addition of the pr e - warmed enzyme/substrate (E/S) mix. […]
Fluorescence per well was measured using a fluorescence plate reader (Tecan Infinite M1000 pro) and percentage of inhibition was calculated. hERG ion channel inhibition. […]

human D1R = molecular target: T2, human D1R (Homo sapiens, UniProt P21728); assay: potentiator-mode cAMP assay (HTRF) in SK-N-MC neuroblastoma cells endogenously expressing human D1R; type: cell-based; conditions: for EC50: potency of the compound at the DA EC70 concentration
T2 construct: endogenously expressed human D1R in the SK-N-MC cell line (ATCC); host or cells: SK-N-MC human neuroblastoma cells
T2 sequence (P21728 whole entry): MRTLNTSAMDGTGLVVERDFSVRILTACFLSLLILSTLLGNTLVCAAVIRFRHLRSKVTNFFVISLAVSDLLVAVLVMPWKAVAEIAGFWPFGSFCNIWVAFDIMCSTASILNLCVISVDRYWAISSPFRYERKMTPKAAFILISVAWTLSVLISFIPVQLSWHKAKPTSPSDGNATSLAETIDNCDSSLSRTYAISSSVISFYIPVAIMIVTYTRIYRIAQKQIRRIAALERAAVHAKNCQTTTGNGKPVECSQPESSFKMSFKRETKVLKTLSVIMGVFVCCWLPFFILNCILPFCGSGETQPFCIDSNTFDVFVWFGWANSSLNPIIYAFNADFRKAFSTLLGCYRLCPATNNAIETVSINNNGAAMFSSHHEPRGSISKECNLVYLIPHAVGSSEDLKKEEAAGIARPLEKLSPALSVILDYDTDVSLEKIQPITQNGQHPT
Procedure: An in-house chemical library of 250 compounds was screened using an in vitro assay measuring accumulation of cAMP in a human neuroblastoma SK-N-MC cell line stably expressing physiological levels of the D1R but not the D5R.[41] To assess allosteric modulation of the D1R, cells were treated with a fixed concentration of the test compounds (10 μM) for 15 min and then co-incubated with increasing concentrations of the endogenous agonist DA. The cAMP concentration was quantified by homogeneous time-resolved fluorescence energy transfer (HTRF) and the effect of each compound on the DA concentration–response curve was measured.
The PAM efficacy was measured as the percentage of increase over DA EC70 and the potency as the EC50 observed in the concentration–response curve.
Functional studies at human D1 and D2 receptors were carried out in endogenously expressed human D1R in the SK-N-MC cell line (ATCC), and recombinant human D2R stably transfected in an in-house CHO cell line. Cells were thawed and seeded into a black 96-well plate (1 × 10^4 cells/well for SK-N-MC cell line, 5 × 10^3 cells/well for CHO cell line) in Opti-MEM containing 500 μM IBMX (3-isobutyl-1-methylxanthine).

| CYP1A2 (%) (CYP1A2; percentage of inhibition at 10 μM) | Emax (human D1R; SK-N-MC, concentration–response curve of the compound over DA EC70, read-out: % maximum increase (efficacy over DA EC70)) [%] | Structure (SMILES) | IC50 (CYP1A2) [µM] | EC50 (human D1R) [µM] |
| --- | --- | --- | --- | --- |
| – | – | O=Cc1ccc(-c2ccccc2OCF)cc1 [Compound 3, 2′-(Fluoromethoxy)[1,1′-biphenyl]-4-carbaldehyde] | 0.83 ± 0.17 | 12.7 ± 2.4 |
| 49 ± 2 | 45 ± 7 | CS(=N)(=O)c1ccc(-c2ccccc2OCF)cc1 (centres unmarked) [Compound 26, 2-(Fluoromethoxy)-4′-(S-methanesulfonimidoyl)-1,1′-biphenyl] | – | 0.06 ± 0.01 |
